Data reported in article PMC4774911, “Biochemical Screening of Five Protein Kinases from Plasmodium falciparum against 14,000 Cell-Active Compounds” (PLoS ONE, 2016).
Where “and” joins values, the source holds several entries; their conditions need not be identical. Equal values may be shown once.

Tests used:
Test in all cases: biochemical
Design in all cases: endogenous in cells; host or cells: K562 cell extract; species or system K562 (extract); replicate k of n = 2 (each experiment ID is one independent experiment; two experiment IDs per compound)
Conditions in all cases: read-out: KDapp
LIMK1 = LIMK1 (Homo sapiens, UniProt P53667)
Chain of LIMK1 (P53667 whole entry): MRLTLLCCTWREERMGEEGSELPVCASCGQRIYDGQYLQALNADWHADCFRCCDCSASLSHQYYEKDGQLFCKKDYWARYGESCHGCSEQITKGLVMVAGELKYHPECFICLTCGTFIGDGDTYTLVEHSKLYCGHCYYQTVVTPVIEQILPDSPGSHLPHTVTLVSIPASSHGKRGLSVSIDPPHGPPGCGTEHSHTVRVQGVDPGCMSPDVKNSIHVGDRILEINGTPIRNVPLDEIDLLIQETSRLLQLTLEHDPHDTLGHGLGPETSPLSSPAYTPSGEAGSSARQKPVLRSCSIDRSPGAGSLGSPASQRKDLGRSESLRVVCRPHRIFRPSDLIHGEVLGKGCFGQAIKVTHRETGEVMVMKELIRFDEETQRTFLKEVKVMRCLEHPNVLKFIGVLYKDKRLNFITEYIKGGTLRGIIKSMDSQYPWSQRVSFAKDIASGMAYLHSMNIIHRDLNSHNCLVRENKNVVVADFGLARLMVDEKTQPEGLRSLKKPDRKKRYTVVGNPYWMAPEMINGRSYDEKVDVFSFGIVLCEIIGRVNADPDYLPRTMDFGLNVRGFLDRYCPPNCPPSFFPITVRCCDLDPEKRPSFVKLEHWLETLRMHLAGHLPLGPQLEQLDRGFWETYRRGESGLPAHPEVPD

MAP3K7 = biological target: T1, MAP3K7 (Homo sapiens, UniProt O43318)
T1 sequence (O43318 1-606): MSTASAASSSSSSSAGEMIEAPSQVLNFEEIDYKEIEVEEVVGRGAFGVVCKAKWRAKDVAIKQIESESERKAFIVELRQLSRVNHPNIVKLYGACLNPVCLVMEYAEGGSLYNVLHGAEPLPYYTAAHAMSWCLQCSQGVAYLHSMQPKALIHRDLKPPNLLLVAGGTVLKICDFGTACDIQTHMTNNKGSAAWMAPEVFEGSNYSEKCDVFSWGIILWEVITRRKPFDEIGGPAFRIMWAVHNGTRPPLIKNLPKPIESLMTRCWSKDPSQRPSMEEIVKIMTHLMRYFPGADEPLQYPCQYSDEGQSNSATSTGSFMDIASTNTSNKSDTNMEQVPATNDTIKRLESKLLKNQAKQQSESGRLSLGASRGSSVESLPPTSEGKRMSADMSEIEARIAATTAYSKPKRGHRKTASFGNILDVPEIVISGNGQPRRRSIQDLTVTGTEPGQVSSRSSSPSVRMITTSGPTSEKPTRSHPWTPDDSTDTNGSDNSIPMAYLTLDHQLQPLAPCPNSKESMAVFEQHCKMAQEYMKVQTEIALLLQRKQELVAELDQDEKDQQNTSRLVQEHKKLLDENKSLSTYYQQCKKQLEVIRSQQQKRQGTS

RPS6KA1 = RPS6KA1 (Homo sapiens, UniProt Q15418)
Chain of RPS6KA1 (Q15418 whole entry): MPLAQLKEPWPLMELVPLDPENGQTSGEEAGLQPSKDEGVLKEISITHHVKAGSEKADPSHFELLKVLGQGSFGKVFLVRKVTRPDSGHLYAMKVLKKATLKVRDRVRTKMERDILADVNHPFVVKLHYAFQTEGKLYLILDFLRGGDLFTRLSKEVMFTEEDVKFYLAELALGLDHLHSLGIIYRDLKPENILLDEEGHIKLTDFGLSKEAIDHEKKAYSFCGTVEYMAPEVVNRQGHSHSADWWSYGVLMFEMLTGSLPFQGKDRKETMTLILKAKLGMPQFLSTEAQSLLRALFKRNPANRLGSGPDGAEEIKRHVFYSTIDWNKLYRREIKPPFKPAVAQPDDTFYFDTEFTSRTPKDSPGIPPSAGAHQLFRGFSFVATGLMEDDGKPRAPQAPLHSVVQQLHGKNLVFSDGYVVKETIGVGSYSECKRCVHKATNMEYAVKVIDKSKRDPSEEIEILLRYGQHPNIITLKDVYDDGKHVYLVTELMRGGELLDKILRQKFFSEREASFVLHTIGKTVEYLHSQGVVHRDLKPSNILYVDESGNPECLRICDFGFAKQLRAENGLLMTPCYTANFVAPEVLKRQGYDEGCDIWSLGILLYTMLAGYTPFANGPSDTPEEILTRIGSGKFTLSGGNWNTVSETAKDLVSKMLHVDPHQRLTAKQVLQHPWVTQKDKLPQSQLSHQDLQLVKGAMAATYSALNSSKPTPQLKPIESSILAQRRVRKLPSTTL

BMP2K = BMP2K (Homo sapiens, UniProt Q9NSY1)
Chain of BMP2K (Q9NSY1 whole entry): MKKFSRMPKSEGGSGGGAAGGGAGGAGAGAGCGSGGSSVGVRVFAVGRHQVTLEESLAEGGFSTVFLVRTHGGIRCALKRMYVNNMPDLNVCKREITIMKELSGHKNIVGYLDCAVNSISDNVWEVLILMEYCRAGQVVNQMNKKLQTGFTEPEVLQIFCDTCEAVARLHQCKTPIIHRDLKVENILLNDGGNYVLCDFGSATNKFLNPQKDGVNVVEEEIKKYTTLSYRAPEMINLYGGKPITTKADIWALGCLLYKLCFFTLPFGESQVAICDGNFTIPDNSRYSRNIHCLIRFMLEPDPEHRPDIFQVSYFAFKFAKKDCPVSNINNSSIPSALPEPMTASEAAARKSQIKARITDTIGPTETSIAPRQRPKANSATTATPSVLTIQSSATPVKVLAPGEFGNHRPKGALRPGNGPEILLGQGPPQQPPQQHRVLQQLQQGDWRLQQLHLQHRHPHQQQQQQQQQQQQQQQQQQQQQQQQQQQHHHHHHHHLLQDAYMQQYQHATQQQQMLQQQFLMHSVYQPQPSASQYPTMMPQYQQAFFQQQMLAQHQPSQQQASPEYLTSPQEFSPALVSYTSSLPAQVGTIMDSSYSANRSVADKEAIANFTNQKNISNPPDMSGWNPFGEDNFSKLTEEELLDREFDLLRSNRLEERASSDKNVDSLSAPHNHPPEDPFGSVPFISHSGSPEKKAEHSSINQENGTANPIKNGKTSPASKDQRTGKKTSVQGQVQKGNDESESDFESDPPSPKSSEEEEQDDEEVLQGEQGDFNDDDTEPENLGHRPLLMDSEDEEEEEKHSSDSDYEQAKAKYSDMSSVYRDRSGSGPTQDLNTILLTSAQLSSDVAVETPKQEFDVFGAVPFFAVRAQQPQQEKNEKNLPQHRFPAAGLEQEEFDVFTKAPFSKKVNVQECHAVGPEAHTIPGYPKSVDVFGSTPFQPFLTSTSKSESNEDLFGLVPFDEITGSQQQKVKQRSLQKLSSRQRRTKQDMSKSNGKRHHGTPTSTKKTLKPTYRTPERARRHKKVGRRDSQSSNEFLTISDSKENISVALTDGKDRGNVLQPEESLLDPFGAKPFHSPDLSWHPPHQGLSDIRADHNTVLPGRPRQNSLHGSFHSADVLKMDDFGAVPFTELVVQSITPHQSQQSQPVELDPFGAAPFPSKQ

CDK2 = CDK2 (Homo sapiens, UniProt P24941)
TNK1 = biological target: T2, TNK1 (Homo sapiens, UniProt Q13470)
T2 sequence (Q13470 1-666): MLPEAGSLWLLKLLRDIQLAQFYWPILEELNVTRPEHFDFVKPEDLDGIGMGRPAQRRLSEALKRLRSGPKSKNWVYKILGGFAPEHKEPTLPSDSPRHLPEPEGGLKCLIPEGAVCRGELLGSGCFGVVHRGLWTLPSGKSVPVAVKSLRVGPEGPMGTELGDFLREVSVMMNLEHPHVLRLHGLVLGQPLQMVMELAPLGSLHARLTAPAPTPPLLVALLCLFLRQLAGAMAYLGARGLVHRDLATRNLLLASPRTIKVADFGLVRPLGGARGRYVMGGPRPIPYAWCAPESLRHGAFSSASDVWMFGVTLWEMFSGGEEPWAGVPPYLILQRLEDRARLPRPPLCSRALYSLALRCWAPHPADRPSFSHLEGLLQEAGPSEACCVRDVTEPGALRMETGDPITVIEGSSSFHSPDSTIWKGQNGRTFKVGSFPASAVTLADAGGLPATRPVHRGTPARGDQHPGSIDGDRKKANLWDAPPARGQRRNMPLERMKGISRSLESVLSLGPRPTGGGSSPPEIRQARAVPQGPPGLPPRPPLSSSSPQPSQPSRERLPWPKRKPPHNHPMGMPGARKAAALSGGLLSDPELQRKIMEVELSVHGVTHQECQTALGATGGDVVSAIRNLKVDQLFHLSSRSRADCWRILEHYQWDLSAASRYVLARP

Row | Compound | Kd (LIMK1) [µM] | Kd (MAP3K7) | Kd (RPS6KA1) [µM] | Kd (BMP2K) | Kd (CDK2) | Kd (TNK1)
1 | CN1CCN(c2ccc(Nc3ncc(C#N)c(Nc4ccccc4C(N)=O)n3)cc2)CC1.Cl [TCMDC-134116] | 0.121 | 1.47 µM and 0.808 µM | 0.096 | 0.112 µM and 0.0928 µM | 0.135 µM and 0.131 µM | 
2 | CN(C)CC(O)COc1ccc(Nc2ncc([N+](=O)[O-])c(Nc3ccccc3O)n2)cc1.O=C(O)C(F)(F)F (stereo not drawn) [TCMDC-141399] |  |  |  |  |  | 1.15 µM and 0.464 µM
